# Several values for one entry are separate records, joined by “and”; a condition that tells them apart may be missing. Equal entries are not always repeated.
# Legend:
# [1] = test system: germline ε promoter; test: Functional profile of BR10A1 wt and mutants in the A5T4 reporter cell line; format: cell-based, human; details: for Reporter Ratio: A5T4 reporter line; for functional category as compared to the activity of the wild type peptide: based on reporter ratio, % change calculated after subtracting 1.0 from the ratios
# Description: Following infection, the library was enriched for cells expressing peptides that inhibit IL-4 induced ε transcription as generally outlined in the top half of FIG. 3 and sorted by FACS into single cell clones. The clones were then screened as generally illustrated in the lower half of FIG. 3. Briefly, for screening, each clone was divided into two populations and one population was treated with Dox (10 ng/ml). After 5 days, both populations were stimulated with IL-4 (final conc. 60 U/mL; PeptroTech, Inc.) and, after 3 more days, both populations were analyzed by FACS to measure BFP and GFP fluorescence. FACS data were converted to a “reporter ratio”, which is defined for this purpose as the ratio of the geometric mean of GFP fluorescence of the +IL-4/+Dox to the +IL-4/−Dox populations. Cells expressing a peptide that inhibits germline ε transcription have a reporter ratio of ≧1.1. A reporter ratio of ≧1.2 is indicative of strong inhibition.
# The ability of peptide BR10A1 wt to inhibit germline ε transcription was confirmed in naive cells. Briefly, Phoenix cells were transfected with a retroviral vector encoding a BFP-BR10A1 wt peptide fusion as described in WO 99/58663 and WO 97/27213. Naïve A5T4 cells were infected with the resultant virions and grown for 3 days. The infected cells were stimulated with IL-4 (60 U/mL) and, after 3 days, the cells were assessed by FACS for BFP and GFP. […] The BFP fluorescence data corresponding to the BFP^+ and BFP^− populations are provided in Panel A. The GFP fluorescence data corresponding to the BFP^+ and BFP^− populations are presented in Panel B. The reporter ratio for this purpose is determined as the geometric mean of the GFP fluorescence of the BFP^− population divided by the geometric mean of the GFP fluorescence of the BFP^+ population. The reporter ratio for the BR10A1 in this re-infection assay was 1.27.
# A collection of BR10A1 mutants was generated by replacing single or double amino acid residues in the sequence of BR10A1 wt with a different amino acid, typically an alanine or glycine, as described in copending application Ser. No.10/095,659, entitled Methods of Identifying Protein Targets, filed Mar. 8, 2002 . The functional profiles for the mutants derived from BR10A1 wt was obtained by constructing and screening for activity in the A5T4 reporter cell line in the manner described above. The activity of each mutant at the germline ε promoter is reflected in the reporter ratio as described above. The reporter ratios were the functional values that were used to develop the functional profiles. Measurement of the reporter ratios of the mutant peptides was carried out in a number of separate experiments, each time comparing the value of cells transfected with mutant peptide to that of cells transfected with control WT peptide done at the same time. The reporter ratios of the control WT peptide can vary depending upon a number of factors including the infectivity or the state of the infected cells at the time of infection.
# TABLE 2 depicts the amino acid sequences (the dual alanine mutations are underlined) of the mutants tested and the measured reporter ratios when screening in the A5T4 reporter line.
# Comparison of the interaction and functional profiles was performed by categorizing the mutants of BR10A1 based on the functional and interaction assays. Based on the reporter ratio, each mutant was categorized into one of four functional categories: (1) reduction of function (ROF); (2) loss of function (LOF); (3) increase of function (IOF) or (4) functionally neutral (N) as compared to the activity of the wild type peptide, here BR10A1 wt. As mentioned previously, cells expressing a peptide that inhibits germline ε transcription have reporter ratios of ≧1.1. Cells expressing a loss of function (LOF) mutant have a reporter ratio of <1.11. […] Functionally neutral mutants have reporter ratios that fall within ±50% of that of the BR10A1 wt peptide. […]
# [2] = biological target: T1, human c-Myc protein (Homo sapiens, UniProt P01106); test: Yeast two hybrid (YTH) interaction assay, β-galactosidase; format: binding
# T1 construct: expressed in transfected cells; prey cDNA library made from the A5T4 reporter line (human BJAB B-cells)
# T1 sequence (P01106 whole entry): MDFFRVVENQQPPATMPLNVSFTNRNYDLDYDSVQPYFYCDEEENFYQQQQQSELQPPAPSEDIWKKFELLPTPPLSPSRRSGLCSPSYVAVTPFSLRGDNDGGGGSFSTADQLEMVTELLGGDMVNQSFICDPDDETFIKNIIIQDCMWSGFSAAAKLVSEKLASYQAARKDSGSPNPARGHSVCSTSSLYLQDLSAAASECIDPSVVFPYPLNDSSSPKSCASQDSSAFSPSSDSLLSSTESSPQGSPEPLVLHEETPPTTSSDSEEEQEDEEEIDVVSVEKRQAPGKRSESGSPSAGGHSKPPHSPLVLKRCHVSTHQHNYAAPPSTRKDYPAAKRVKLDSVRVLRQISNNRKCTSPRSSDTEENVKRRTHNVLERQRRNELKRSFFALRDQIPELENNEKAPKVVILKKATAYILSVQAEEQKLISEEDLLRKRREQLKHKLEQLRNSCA
# Description: Potential binding partners for peptide BR10A1 wt were identified in a β-galactosidase yeast two-hybrid (YTH) assay using peptide BR10A1 wt as bait and a cDNA library constructed from the A5T4 reporter cell line as prey. Binding was assessed by β-galactosidase quantification using BetaFluor (Novagen) as a substrate. A negative interaction control (no cDNA fused downstream of the GAL4 activation domain sequence) was also run. A general outline of the YTH assay is illustrated in FIG. 5A. Following clustering, filtering to remove non-specific bait hits (e.g., GFP and BFP), singletons and clusters recognized by 10 or more cDNA baits (based upon historical YTH assays), and prioritization, 30 prey clones were identified as hits.
# Potential targets identified in the YTH assay were reconfirmed as generally outlined in FIG. 6. The cDNA clones identified as hits in the YTH assay were purified and rescreened for interaction with the BR10A1 wt peptide in a YTH assay. The hit clones were also screened in a control assay for interaction with the BFP using a vector (pGBKT7) that contained only the BFP and not the BR10A1 peptide. At this stage, 25 putative target clones remained.
# The interaction of BR10A1 wt peptide and its mutants with the clones identified as potential targets for the peptide BR10A1 wt was then quantified in a β-galactosidase YTH assay. The YTH assay was performed in the manner described above. A general outline of this YTH assay is illustrated in FIG. 5B. For each clone tested, an interaction profile was developed by comparing the β-galactosidase activity of each mutant to that of the wild type peptide as described above.
# The interaction of selected IOF, ROF and LOF mutants with different polypeptides encoded by the putative target clones were quantified using the YTH assay described above. Based on the YTH assay, for each putative target, the mutants were categorized into the following four interaction categories: (1) reduction of interaction (ROI); (2) loss of interaction (LOI); (3) increase of interaction (IOI); and (4) interactionally neutral (N), by assessing the binding affinity ratio of the mutant peptide and the wild type peptide (β-gal activity of mutant/wild type) to the putative target. The selection criteria for categorizing the interactions is shown on FIG. 8.
# [3] = second value column (separate experiment with its own WT control)
# [4] = separate experiment with its own WT control
Sequence,"Reporter Ratio [1, 3]",binding to human c-Myc protein in yeast two hybrid interaction assay [2],"Reporter Ratio [1, 4]",other results
MQRRESCITRSVAAGWGLFYLGP (peptide encoded by random oligo-BR10A1EE) [dual alanine mutant of BR10A1 wt],1.39,,,
MQAAESCITRSVEEGWGLFYLGP (peptide encoded by random oligo-BR10A1RR) [dual alanine mutant of BR10A1 wt],,,,Reporter Ratio ([1]; first value column (separate experiment with its own WT control)): 1.32
MQRRESCITRSVEEAAGLFYLGP (peptide encoded by random oligo-BR10A1GW) [dual alanine mutant of BR10A1 wt],1.23,,,
MQRRESCITRSVEEGWAAFYLGP (peptide encoded by random oligo-BR10A1GL) [dual alanine mutant of BR10A1 wt],1.44,found to bind,,
MQRRESAATRSVEEGWGLFYLGP (peptide encoded by random oligo-BR10A1CI) [dual alanine mutant of BR10A1 wt],1.16,found to bind,,functional category as compared to the activity of the wild type peptide [1]: ROF (a reduction of function (ROF) of mutant shows a >50% decrease in reporter ratio)
AARRESCITRSVEEGWGLFYLGP (peptide encoded by random oligo-BR10A1MQ) [dual alanine mutant of BR10A1 wt],,,1.57,
MQRRESCITRSVEEGWGLAALGP (peptide encoded by random oligo-BR10A1FY) [dual alanine mutant of BR10A1 wt],,,1.34,
MQRRAACITRSVEEGWGLFYLGP (peptide encoded by random oligo-BR10A1ES) [dual alanine mutant of BR10A1 wt],,found to bind,1.50,
MQRRESCIAASVEEGWGLFYLGP (peptide encoded by random oligo-BR10A1TR) [dual alanine mutant of BR10A1 wt],1.62,found to bind,,functional category as compared to the activity of the wild type peptide [1]: IOF (An increase of function mutant (IOF) shows a >50% increase in reporter ratio)
MQRRESCITRSVEEGWGLFY (peptide encoded by random oligo-BR10A1STOP) [C-terminally truncated form of BR10A1 wt],,,1.34,
MQRRESAATRSVEEAAGLFYLGP (peptide encoded by random oligo-BR10A1CIGW) [mutant of BR10A1 wt with alanines at CI and GW],,,,Reporter Ratio ([1]; fourth value column (separate experiment with its own WT control)): 1.08 and 1.15; functional category as compared to the activity of the wild type peptide [1]: LOF/ROF

# — patent US7241581B2, “Methods of identifying compounds that modulate IL-4 receptor-mediated IgE synthesis utilizing a c-MYC protein” (Rigel Pharmaceuticals, Inc., priority 2002, dated 2007)
